Results as given in PMC11714206, “Massively Parallel Screening of Toll/Interleukin‐1 Receptor (TIR)‐Derived Peptides Reveals Multiple Toll‐Like Receptors (TLRs)‐Targeting Immunomodulatory Peptides” (Advanced Science, 2024).
Values belong to the sequence of their own block, whether it stands above or below them.

Target: T1, MyD88^TIR (Homo sapiens, UniProt Q99836)
T1 construct: MyD88 (residues 148–296); 6xHis; made in house; host or cells: E. coli BL21 (DE3)
Experiment: T‐Surf phage library (P8 and P3) selection against MyD88^TIR, four rounds, NGS read counts
Type: binding
Settings: for P8_MyD88 Rank (after) / P8_MyD88 Rank (before): P8 library; for P3_MyD88 Rank (after) / P3_MyD88 Rank (before): P3 library; for Population: 4th round of selection against MyD88 TIR, share of NGS reads
Method: T‐Surf libraries were screened against the immobilized TIR domains of two major human TLR adaptor proteins, MAL^TIR and MyD88^TIR, allowing cross‐species selection of TIR‐binding motifs with 190 946 TIR‐derived peptides in a single binding assay (Scheme 1). Enriched phage pools from the fourth round of selection were analyzed using NGS after barcoding the peptide‐coding regions of the phage pools.
Phage display screening was performed by coating two wells of a 96‐well plate (Maxisorp, Thermo Fisher Scientific) with 100 µL of 5 µg mL^−1 TIR domains overnight; then, the coated wells were blocked with 200 µL of blocking buffer (0.2% BSA in PBS) and set aside for 1 h at 4 °C with gentle shaking. Next, 100 µL of the phage library was added to the wells and incubated for 1 h at room temperature (RT; 20 – 22 °C) with gentle shaking. The plate was washed four times with PBS containing 0.5% Tween‐20; the bound phages were eluted by adding 100 µL of 100 mM HCl to each well. The elute was neutralized with 10 µL of 1.0 M Tris‐HCl (pH 11.0). E. coli TG1 cells were grown to the log phase (A600 = ≈0.6), and 1 mL of the culture was incubated with 100 µL of the eluted phages for 30 min at 37 °C, with shaking at 200 rpm. Next, 1 µL of M13KO7 helper phages was added, followed by incubation for 45 min at 37 °C, with shaking. Subsequently, the cells were transferred to 25 mL of 2× yeast extract tryptone/carbenicillin/kanamycin medium and incubated overnight at 37 °C with shaking at 200 rpm. The amplified phages were precipitated with 20% PEG‐8000/2.5 M NaCl to be used for the next round of selection.
The naïve T‐Surf libraries in P8 and P3 and the enriched phage pools after four rounds were barcoded for NGS as previously described.^[ [59] ^] Briefly, 5 µL of the phage pool was used as a template for 20 cycles of a 50 µL PCR reaction using […] each of forward and reverse barcoded primers and PrimeSTAR Max DNA Polymerase. The PCR products were purified using Expin Gel SV (GeneAll). The NGS samples were quantified using qPCR, following the qPCR Quantification Protocol Guide (KAPA Library Quantification kits for Illumina Sequencing Platform), and qualified using the TapeStation High Sensitivity D1000 ScreenTape (Agilent Technologies). The indexed libraries were further sequenced by Macrogen (Seoul, Republic of Korea) using the NovaSeq platform (Illumina) with 100 bp paired‐end reads. The reads were demultiplexed by barcodes and filtered for an average Phred quality score of at least 30, followed by trimming the flanking consensus sequences using Cutadapt (version 2.3). Peptide sequence populations were analyzed according to the read counts.

[1] = selection against MyD88, rank by count after grouping
[2] = selection against MyD88, rank by count before grouping
[3] = selection against MyD88, rank after grouping
[4] = selection against MyD88, rank before grouping
[5] = P3_MyD88 pool: P3 T-Surf phage library
[6] = P3_MyD88: rank by count after grouping
[7] = P3_MyD88: rank by count before grouping
[8] = selection against MyD88 TIR, rank by count after grouping
[9] = selection against MyD88 TIR, rank by count before grouping
[10] = 4R selection against MyD88, rank after grouping
[11] = 4R selection against MyD88, rank before grouping
[12] = P8_MyD88: rank by NGS read count after grouping
[13] = P8_MyD88: rank by NGS read count before grouping

T1 sequence (Q99836 148-296): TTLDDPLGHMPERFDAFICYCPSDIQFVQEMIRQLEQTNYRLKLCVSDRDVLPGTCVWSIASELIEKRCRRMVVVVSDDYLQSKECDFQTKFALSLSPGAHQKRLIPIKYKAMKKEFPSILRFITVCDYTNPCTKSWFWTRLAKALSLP

Sequence: DGGWDYLLPNVEGPAC
P8_MyD88 Rank (after) [1]: 760
P8_MyD88 Rank (before) [2]: 2560

Sequence: DHHLALPRGKASKPEHLG
P3_MyD88 Rank (after) [3]: 525
P3_MyD88 Rank (before) [4]: 1994

Sequence: DHHLDLLRGIAIKLEILG
P3_MyD88 Rank (after) [1]: 722
P3_MyD88 Rank (before) [2]: 1998

Sequence: DHHLDLPRGKAIKE
P3_MyD88 Rank (after) [3]: 550
P3_MyD88 Rank (before) [4]: 2017

Sequence: DHHLDLPRGKAIKPAILR
Rank (after) [6]: 162
Rank (before) [7]: 2019

Sequence: DHHLDLPRGKAIKPEFW
P3_MyD88 Rank (after) [8]: 241
P3_MyD88 Rank (before) [9]: 951

Sequence: DHHLDLPRGKAIKPEILG
P8_MyD88 Rank (after) [1]: 757
P8_MyD88 Rank (before) [2]: 3049

Sequence: DHHLDLPRGKAIKPVILG
Population [5]: 0.00291%

Sequence: DHHLDLPRGKAIKREILG
Population [5]: 0.00437%

Sequence: DHHLDLPRGKAIQPDILG
P3_MyD88 Rank (after) [3]: 554
P3_MyD88 Rank (before) [4]: 2014

Sequence: DHHLDLPRGKALTPEILG
P3_MyD88 Rank (after) [10]: 657
P3_MyD88 Rank (before) [11]: 2012

Sequence: DHHLDLPRGKEIKPELLG
P3_MyD88 Rank (after) [8]: 245
P3_MyD88 Rank (before) [9]: 2038

Sequence: DHHLDLPRGKSFKPEILG
Rank (after) [6]: 451
Rank (before) [7]: 1996

Sequence: DHHLDLPSGKAIKPDILG
Rank (after) [6]: 107
Rank (before) [7]: 2044

Sequence: DHHLDLSRGKAIKPAILG
P3_MyD88 Rank (after) [8]: 236
P3_MyD88 Rank (before) [9]: 1997

Sequence: DHHLDLSRGKSIKPDILG
Rank (after) [6]: 435
Rank (before) [7]: 2053

Sequence: DHHLNLPRGKSVKPEILG
P3_MyD88 Rank (after) [10]: 652
P3_MyD88 Rank (before) [11]: 2057

Sequence: DHHMDLTRGKAIKPEILG
P3_MyD88 Rank (after) [10]: 616
P3_MyD88 Rank (before) [11]: 2061

Sequence: DHLDPSHLRKQSGEFG
P3_MyD88 Rank (after) [1]: 734
P3_MyD88 Rank (before) [2]: 1991

Sequence: DIEYIHLFWDRLLYSL
P8_MyD88 Rank (after) [3]: 526
P8_MyD88 Rank (before) [4]: 3060

Sequence: DIVAYVMQKLMKHQVF
Rank (after) (P8_MyD88: rank by count after grouping): 154
Rank (before) (P8_MyD88: rank by count before grouping): 169
Population (P8_MyD88 pool: P8 T-Surf phage library): 0.00848%

Sequence: DLLLCVFQTFFARLTE
Rank (after) [12]: 948
Rank (before) [13]: 2592

Sequence: DLLLSEFQSIFARRTV
P8_MyD88 Rank (after) [3]: 531
P8_MyD88 Rank (before) [4]: 2593

Sequence: DLLRHLIEAFSRMHIN
Rank (after) [12]: 940
Rank (before) [13]: 2389

The next lines start with the values.

Population [5]: 0.00437%
Sequence: DHHLDLPRGKAIKLEILG

Rank (after) [6]: 108
Rank (before) [7]: 953
Sequence: DHHLDLPRGKAIKPEIL

P3_MyD88 Rank (after) [3]: 483
P3_MyD88 Rank (before) [4]: 2026
Sequence: DHHLDLPRGKAIKPEILGH

Population [5]: 0.0032%
Sequence: DHHLDLPRGKAIKPEILS

Population [5]: 0.00495%
Sequence: DHHLDLPRGKAIKQEILG

Rank (after) [6]: 102
Rank (before) [7]: 355
Sequence: DHHLDLPRGKAINRKFW

P3_MyD88 Rank (after) [8]: 200
P3_MyD88 Rank (before) [9]: 2046
Sequence: DHHLDLPRGKALKPEMLG

P3_MyD88 Rank (after) [3]: 555
P3_MyD88 Rank (before) [4]: 2035
Sequence: DHHLDLPRGKANKPEILD

P3_MyD88 Rank (after) [8]: 244
P3_MyD88 Rank (before) [9]: 2040
Sequence: DHHLDLPRGKPIKREILG

Rank (after) [6]: 153
Rank (before) [7]: 944
Sequence: DHHLDLPRGKRLNRKFW

P3_MyD88 Rank (after) [3]: 487
P3_MyD88 Rank (before) [4]: 1999
Sequence: DHHLDLPWGKAKKPEILG

Rank (after) [6]: 129
Rank (before) [7]: 631
Sequence: DHHLICRVAKRLNRKFW

P3_MyD88 Rank (after) [10]: 661
P3_MyD88 Rank (before) [11]: 2060
Sequence: DHHMDLPRDTAIKPEILG

P3_MyD88 Rank (after) [3]: 482
P3_MyD88 Rank (before) [4]: 2062
Sequence: DHQLDLPRCKAIKPEILG

Rank (after) [12]: 955
Rank (before) [13]: 3056
Sequence: DIADEDLPYLIRLLYSL

P8_MyD88 Rank (after) [1]: 676
P8_MyD88 Rank (before) [2]: 3070
Sequence: DIQWALQKLMQIMEAF

P8_MyD88 Rank (after) [3]: 534
P8_MyD88 Rank (before) [4]: 2582
Sequence: DLCDILSQNGIPTFFD
